Assay results as given in patent publication US12679855B2, “Inhibitors of the enzyme enolase for precision oncology” (Board of Regents, The University of Texas System, priority 2019, dated 2026).
“Also recorded” adds a separate entry of the source. Like-named read-outs stand apart in the source and are kept apart here. Values belong to the compound of their own block, whether it stands above or below them.

Columns and labels:
[1] = test system: D423 (ENO1-deleted) glioma cells; experiment: Cell proliferation assay (crystal violet) in ENO1-deleted glioma cells; format: cell-based
[2] = test system: D423 (ENO1-deleted) glioma cells; experiment: as above; format: cell-based; details: for IC50: Glioma cell; for selectivity for ENO1-deleted cells: versus ENO1-rescued (D423 ENO1) and ENO1-intact (LN319) glioma cells
Description: Cell culture experiments. Cell culture experiments were conducted using the D423-MG cell line. 1p36 homozygous deletion in D423 includes the genes from CAMTAJ to SLC25A33; this includes ENO1. Isogenic ENO1 ectopically rescued lines were described previously (pCMV ENO1 5X) (Muller et al., 2012, which is incorporated by reference herein). An ENO1-intact cell line (LN319) was used as a control for sensitivity to Enolase inhibitors. Cells were routinely cultured in Dulbecco's modified Eagle's medium supplemented with 10% fetal bovine serum.
Cell proliferation assay. Cell Proliferation was determined by crystal violet staining, as previously described (Leonard et al., 2016 and Satani et al., 2016). The cell lines used were D423 (ENO1-deleted), D423 ENO1 (overexpressing ENO1) and LN319 (control). Glioma cells were seeded in 96-well plates and treated with varying concentrations of the inhibitors described above for 7 days. Cells were then washed with PBS, fixed with 10% formalin and stained with 0.05% crystal violet. Washed and dried plates were dye-extracted using 10% acetic acid, and absorbance was measured at 595 nm using Omegastar Plate Reader (BMG Labtech). To test the efficacy of the synthesized under hypoxic conditions, 1×10^4 cells were plated in 96-well plates, treated with VCY13, VCY15, VCY16, or VCY17 and incubated for 3 days in a hypoxia station (Don Whitley Scientific, Shipley, UK) set at 1% O2 and 5% CO2. Crystal violet staining was then performed as described above.
Additional Biological Data. Pro-drug inhibitor structures and corresponding IC50 values against ENO1-deleted cells are shown below in Table 2. The name and corresponding structures of all synthesized inhibitors are given in left and middle columns of each table. Pro-drug moieties in blue represent a second pro-drug leave group while those in red represent a first pro-drug leave group. Some inhibitors also contain an acetyl-protected hydroxamate, which is also a biologically labile moiety. ENO1-deleted (D423), ENO1-isogenically rescued (D423 ENO1), and ENO1-WT (LN319) cells were treated with either pro-drug inhibitor for 5 days at 21% O2, unless otherwise specified. […] IC50,D423 values at 21% O2 are given in the right columns of each table. Experiments conducted at 1% O2 (hypoxic) or 70% O2 (hyperoxic) conditions are noted, where appropriate.

[3] = Human plasma stability assay (31P NMR); format: in vitro ADME
Description: VCY17 (left) and POMHEX (right) were prepared at 1.5 mM and added to human plasma in an NMR tube with 10% D2O for signal lock. […] As expected, emergence of the second peak after 1 h is due to hydrolysis of the acetyl-protected hydroxamate; the nitroimidazole moiety remains attached (mono-ester phosphonates always show ^31P-chemical shifts <20 ppm); intact phosphoramidate mixed ester was verified by ^31P-^1H HSQC showing resonance with protons at ~5 ppm (—CH2—O—P) and 4 ppm (—CH2—NH—P). Note that VCY17 and de-acetylated VCY17 can come out as doublets: this is because two chiral centers (Phosphorus and C1) yield cis/trans diasteromers.
VCY13 (FIG. 20A) and VCY31 (FIG. 20B) are thioesterase-labile phosphonoamidates. ENO1-deleted (D423, red), ENO1-isogenically rescued (D423 ENO1, blue), and ENO1-WT (LN319, grey) cells were treated with either VCY13 or VCY31 for 5 days. […] (FIG. 20B) VCY31 is a structurally similar pro-drug that uses 2-picolylamine, rather than benzylamine, as a second pro-drug leave group. […] 4 mM VCY31 was dissolved in 80% human plasma, 20% D2O and monitored by ^31P NMR (121 MHz) for 15 hours. Intact VCY31 has a ^31P NMR shift of 33 ppm. Hydrolysis of the thioester begins to occur after 2 hours, as indicated by the emergence of a peak at ~16 ppm.
Human plasma stability assay. POMHEX and VCY17 (1.5 mM) were added to human plasma (Sigma #P9523) in an NMR tube with 10% D2O for signal lock. ^31P NMR measurements (31P CPD, 1000 transients) were conducted every 30 minutes on the first day and every 24 hours, for 4 days afterwards.

[4] = Serum containing cell culture media stability assay; format: in vitro ADME
Description: Serum containing Cell Culture Media stability assay. POMHEX and VCY17 (1 mM) were added to DMEM-containing 10% Fetal Bovine Serum cell culture media in an NMR tube with 10% D2O for signal lock) and incubated at 37° C. ^31P NMR measurements (^31P CPD, 1000 transients) were conducted every 24 hours, for 4 days.

[5] = nitroimidazole in VCY17, nitrofuran in VCY15; cited from earlier work
[6] = test system: Enolase; experiment: Enolase enzymatic activity assay (spectrophotometric, 2-PG to PEP, 240 nm); format: biochemical, human; details: serial dilutions beginning at 100 μM, native lysates
Description: (§1) To assure that benzylamine-protected HEX (FLM38) was not inhibiting Enolase directly, an in vitro spectrophotometric assay was performed to examine Enolase catalytic activity through conversion of 2-phoshpoglycerate (2-PG) to phosphoenolpyruvate (PEP). Without wishing to be bound by theory, if FLM38 were to inhibit Enolase directly, a dose-dependent decrease in absorbance at 240 nm would be observed, corresponding to decreased production of PEP. […] The possibility that the benzylamine moiety could undergo non-enzymatic hydrolysis in aqueous conditions was also examined. This study was performed by measuring the pH-dependence of compound degradation in phosphate buffered D2O via NMR over 3 days.
Enolase enzymatic activity assay. The enzyme activity assay was performed according to a previously described procedure (Muller et al., 2012, which is incorporated by reference herein). […]
In the first, the lysates were treated with the serial dilutions of FLM38 (starting at 100 μM) and the reaction initiated by adding 2.5 mM 2-PG and optical density (OD) was measured at 240 nm using Omegastar Plate reader (BMG Labtech) over the course of 3 h.
In the second experiment, the lysates were pre-incubated in 96-well plates with serial dilutions of FLM38 (starting at 100 µM) at 37° C. for 20 h. The reaction was initiated by adding 2.5 mM 2-PG and OD was measured at 240 nm. […]

[7] = pH degradation assay (31P NMR in phosphate buffered D2O); format: physicochemical; details: pH 3, 7, and 8.82, phosphate buffered D2O, NMR over 3 days
Description: as §1
pH degradation assay. Solutions of 50 mM phosphate buffered D2O were prepared at pH 3, 7, and 8.82. For each condition, FLM38 (5 mg, […]) was dissolved in […] of phosphate buffered D2O and placed in NMR tubes. Hydrolysis was monitored by ^31P NMR and was evidenced by the degradation of the compound peak at ~20 ppm and the emergence of the hydrolyzed product at ~18 ppm. Scans were collected every 12 h on a Bruker 500 MHz NMR.

[8] = test system: NCI-60 cell lines; experiment: NCI-60 screening; format: cell-based; details: NSC: D-813202
From the text: Without wishing to be bound by any particular theory, phosphoamidates may be removed across broad cell types. Whilst the IDX184 utilized benzylamine in its pro-drug structure, this drug was specifically directed at hepatocytes, and no evidence was forthcoming that it would be a pro-drug moiety applicable for glioblastoma or other cancer drug delivery. […] For example, FLM37 has been submitted to the NCI-60 screening (NSC: D-813202). All cancer cell lines were affected at concentrations of FLM37 above 10 μM, some with as little as 1 μM. […] More generally, this means that the amine as a second leaving group is applicable as a universal second leaving group for the delivery of phosphonate/phosphate containing bioactive compounds.

[9] = test system: xenografted tumor (D423 ENO1-homozygously deleted cell line); experiment: Anti-tumor efficacy in xenografted tumor model; format: in vivo, Foxn1 nude mice
Description: Two HEX pro-drugs from different classes were tested for anti-tumor efficacy in xenografted tumor (D423 ENO1-homozygously deleted cell line) pre-clinical models (the standard immunodeficient Foxn1 nude mice). Tumor volumes (y-axis) were measured at the indicated dates (x-axis). Without treatment, tumors grow inexorably. […] This is notable because of the high esterase activity in mouse plasma, rodents are a sub-optimal model for pre-clinical efficacy evaluation of esterase-labile pro-drugs.

[10] = format: in vitro ADME
From the text: Also described herein are synthesized phosphonate pro-drugs that forgo the use of phosphoramidases or esterases to release the active pharmacophore. These moieties include the attachment of 2-(hydroxymethyl)phenol (VCY27) and 3-(hexadecyloxy)propan-1-ol (ESB7). […] Cyclosal pro-drugs have previously been described for protecting phosphate-containing antiviral nucleotides; however, it was herein discovered that its delivery efficacy can be enhanced under high O2 conditions—a previously unknown finding. Separately, the 3-(hexadecyloxy)propan-1-ol is a pro-drug that has been applied to the antiviral nucleotide Brincidofovir (CMX-001). Appending the long chain ester to HEX may facilitate the pro-drug moiety to be used for the treatment of malignant glioma.

[11] = 120 h, ENO1-deleted (D423) cells, 5 days, 21% O2, read-out: IC50,D423
[12] = 120 h, 21% O2, 5 days where stated, read-out: IC50 against D423 (ENO1-deleted) cells
[13] = 4 mM in 80% human plasma, 20% D2O, 31P NMR

- IC50 [2, 11]: 12700 nM
- IC50 ([2]; D423 cells, 1% O2 (hypoxic), read-out: IC50,D423 at 1% O2): 975 nM
- stable in ex-vivo human plasma for [3]: more than 48 hours
- stability in ex-vivo human plasma over the course of ([3]; 1.5 mM, human plasma with 10% D2O, 31P NMR): ≥ 24 h
- stable in serum-containing culture media [4]: more than 48 hours
Compound: CC(=O)ON1CCCC(P(=O)(NCc2ccccc2)OCc2cnc([N+](=O)[O-])n2C)C1=O (stereo not shown) [VCY17, 3-((benzylamino)((1-methyl-2-nitro-1H-imidazol-5-yl)methoxy)phosphoryl)-2-oxopiperidin-1-yl acetate]
- potency increase under 1% O2 ([1]; 4 days, 1% O2 versus 21% O2, ENO1-deleted glioma cells): greater than 15 fold
- difference in bioactivation from 21% to 1% O2 ([2]; taking into account HIF-1α/hypoxia-driven increase in ENO2 expression): ≤ 50 fold
- redox potential of the nitroheterocycle [5]: −390 mV

- direct inhibition of Enolase (dose-dependent decrease in absorbance at 240 nm) [6]: does not inhibit Enolase directly
- stability to non-enzymatic hydrolysis [7]: remained intact
Compound: O=C1C(P(=O)(O)NCc2ccccc2)CCCN1O (stereo not shown) [FLM38, N-benzyl-P-(1-hydroxy-2-oxopiperidin-3-yl)phosphonamidic acid]

Compound: CC(C)(C)C(=O)OCOP(=O)(NCc1ccccc1)C1CCCN(O)C1=O (stereo not shown) [FLM37]
- IC50 ([1]; Glioma cell, 144 h, 6 days, starting concentration 1 μM, crystal violet (FIG. 7), read-out: IC50 towards D423 cells): 63 nM
- IC50 [2, 12]: 244 nM
- IC50 [2, 11]: 150 nM
- selectivity for ENO1-deleted cells [2]: selective killing towards D423 cells; also recorded: selective for ENO1-deleted cells
- concentration at which some cancer cell lines were affected [8]: ≥ 1 µM
- concentrations at which all cancer cell lines were affected [8]: above 10 μM

- IC50 [2, 12]: 59 nM
- IC50 [2, 11]: 59 nM
- hydrolysis of the thioester begins to occur after [3, 13]: 2 h
- time without full hydrolysis [3, 13]: > 15 h
Compound: CC(=O)ON1CCCC(P(=O)(NCc2ccccn2)OCCSC(=O)C(C)(C)C)C1=O (stereo not shown) [VCY31, 2-oxo-3-((2-(pivaloylthio)ethoxy)((pyridin-2-ylmethyl)amino)phosphoryl) piperidin-1-yl acetate]
- tumor volume response ([9]; 90 mg/kg/day IP): suppressed tumor growth
- selectivity for ENO1-deleted cells [2]: dose-dependent selectivity for ENO1-deleted cells

Compound: O=C1C([P@]2(=O)OCc3ccccc3O2)CCCN1O (stereo partly drawn) [VCY27, 1-hydroxy-3-((S)-2-oxido-4H-benzo[d][1,3,2]dioxaphosphinin-2-yl)piperidin-2-one]
- tumor volume response ([9]; 1 IP and 1 SC injection, at 35 mg/kg/day each): immediate abrogation of tumor growth and eventual tumor regression
- IC50 [2, 12]: ~500 nM
- IC50 [2, 11]: 500 nM
- IC50 ([2]; D423 cells, 70% O2 (hyperoxic), read-out: IC50,D423 at 70% O2): 15 nM
- selectivity for ENO1-deleted cells [2]: selective killing against ENO1-deleted cells
- stability under various pH conditions and in biological fluids [10]: robust stability

Compound: CCCCCCCCCCCCCCCCOCCCOP(=O)(O)C1CCCN(O)C1=O (stereo not shown) [ESB7, 3-(hexadecyloxy)propyl hydrogen (1-hydroxy-2-oxopiperidin-3-yl)phosphonate]
- IC50 [2, 11]: 202 nM
- selectivity for ENO1-deleted cells [2]: selective killing against ENO1-deleted cells
- stability under various pH conditions and in biological fluids [10]: robust stability
